Measurements published in ChEMBL document CHEMBL4118100, “High Mobility Group Box-1 (HMGb1): Current Wisdom and Advancement as a Potential Drug Target” (J Med Chem, 2018).
Values belong to the compound of their own block, whether it stands above or below them. Residues, ends and D or L forms follow the SMILES beside them.

Tests used:
[1] = target: T1, High mobility group protein B1 (Homo sapiens, UniProt P09429); assay: Binding affinity to recombinant HMGB1 box A (unknown origin)
T1 sequence (P09429 whole entry): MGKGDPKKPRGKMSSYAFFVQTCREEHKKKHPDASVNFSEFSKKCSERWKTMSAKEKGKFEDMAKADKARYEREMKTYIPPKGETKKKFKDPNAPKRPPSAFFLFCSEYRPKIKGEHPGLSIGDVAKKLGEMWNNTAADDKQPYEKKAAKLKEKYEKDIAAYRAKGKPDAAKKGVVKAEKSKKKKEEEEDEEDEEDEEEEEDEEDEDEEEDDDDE

[2] = target: T1, High mobility group protein B1; assay: Binding affinity to recombinant HMGB1 box B (unknown origin)
[3] = target: T1, High mobility group protein B1; assay: Binding affinity to N-terminal 6His-tagged HMGB1 Bj region (88 to 181 residues) (unknown origin) expressed in Escherichia coli JM109 by SPR assay
[4] = target: T1, High mobility group protein B1; assay: Binding affinity to N-terminal 6His-tagged HMGB1 AI region (1 to 87 residues) (unknown origin) expressed in Escherichia coli JM109 by SPR assay
[5] = target: T1, High mobility group protein B1; assay: Binding affinity to recombinant HMGB1 B box region (90 to 175 residues) (unknown origin) expressed Escherichia coli after 5 mins by fluorescence-based assay
[6] = target: T1, High mobility group protein B1; assay: Binding affinity to recombinant HMGB1 A box region (1 to 89 residues) (unknown origin) expressed Escherichia coli after 5 mins by fluorescence-based assay
[7] = target: Toll-like receptor 4/MD-2 (Homo sapiens, UniProt O00206+Q9Y6Y9); assay: Binding affinity to recombinant human 10His-tagged TLR4 (24 to 631 residues)/recombinant human 10His-tagged MD2 (17 to 160 residues) after 5 mins by SPR assay; type: protein-complex assay
Toll-like receptor 4/MD-2, sequence (O00206 whole entry, the tested form may be a part): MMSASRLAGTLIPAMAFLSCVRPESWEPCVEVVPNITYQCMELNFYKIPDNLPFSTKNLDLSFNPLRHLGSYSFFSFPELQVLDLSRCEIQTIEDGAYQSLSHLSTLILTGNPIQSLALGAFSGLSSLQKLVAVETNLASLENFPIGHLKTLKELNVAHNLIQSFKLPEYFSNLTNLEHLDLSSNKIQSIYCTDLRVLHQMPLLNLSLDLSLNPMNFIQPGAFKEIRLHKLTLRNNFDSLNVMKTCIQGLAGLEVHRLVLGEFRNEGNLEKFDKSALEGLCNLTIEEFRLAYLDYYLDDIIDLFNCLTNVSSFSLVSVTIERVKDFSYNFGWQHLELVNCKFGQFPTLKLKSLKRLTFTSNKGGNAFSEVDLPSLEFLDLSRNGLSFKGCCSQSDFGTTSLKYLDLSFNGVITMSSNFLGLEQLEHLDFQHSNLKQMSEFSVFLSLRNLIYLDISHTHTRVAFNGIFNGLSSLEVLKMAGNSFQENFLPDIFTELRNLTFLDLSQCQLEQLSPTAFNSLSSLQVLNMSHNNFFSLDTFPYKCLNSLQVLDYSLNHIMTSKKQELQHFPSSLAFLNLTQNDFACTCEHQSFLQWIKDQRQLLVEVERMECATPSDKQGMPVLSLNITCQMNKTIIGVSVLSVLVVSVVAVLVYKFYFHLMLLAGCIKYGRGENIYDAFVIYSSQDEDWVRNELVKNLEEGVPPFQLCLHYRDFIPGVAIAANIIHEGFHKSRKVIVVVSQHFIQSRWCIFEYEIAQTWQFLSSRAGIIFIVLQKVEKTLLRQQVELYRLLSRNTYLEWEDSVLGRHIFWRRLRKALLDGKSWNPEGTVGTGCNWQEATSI
Toll-like receptor 4/MD-2, sequence (Q9Y6Y9 whole entry, the tested form may be a part): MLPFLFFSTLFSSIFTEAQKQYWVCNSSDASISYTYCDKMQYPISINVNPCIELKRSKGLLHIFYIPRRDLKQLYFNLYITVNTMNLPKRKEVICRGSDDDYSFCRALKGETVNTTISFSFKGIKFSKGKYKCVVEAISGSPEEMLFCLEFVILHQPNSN

Compound: O=C(O)c1ccccc1O [SALICYLIC ACID]
Kd [1]: 1 to 10 µM | Kd [2]: 1 to 10 µM

Kd [3]: 0.024 µM | Kd [4]: 0.5 µM
Compound: CN(Cc1cnc2nc(N)nc(N)c2n1)c1ccc(C(=O)N[C@@H](CCC(=O)O)C(=O)O)cc1 [METHOTREXATE]

Kd [5]: 87 µM | Kd [6]: 103 µM
Compound: CC1(C)[C@@H](O[C@H]2O[C@H](C(=O)O)[C@@H](O)[C@H](O)[C@H]2O[C@@H]2O[C@H](C(=O)O)[C@@H](O)[C@H](O)[C@H]2O)CC[C@]2(C)[C@H]3C(=O)C=C4[C@@H]5C[C@@](C)(C(=O)O)CC[C@]5(C)CC[C@@]4(C)[C@]3(C)CC[C@@H]12 [GLYCYRRHIZIN]

Kd [7]: 5.95 µM
Compound: CSCC[C@H](NC(=O)[C@H](C)N)C(=O)N[C@@H](C)C(=O)N[C@@H](CC(C)C)C(=O)N[C@@H](CC(=O)O)C(=O)N[C@@H](CS)C(=O)N[C@@H](Cc1ccccc1)C(=O)N[C@@H](CCCNC(=N)N)C(=O)N[C@@H](Cc1c[nH]c2ccccc12)C(=O)NCC(=O)N[C@@H](Cc1c[nH]c2ccccc12)C(=O)N[C@@H](CCCNC(=N)N)C(=O)N[C@@H](CCSC)C(=O)N[C@@H](Cc1c[nH]c2ccccc12)C(=O)N[C@@H](CS)C(=O)N[C@@H](CO)C(=O)N[C@@H](CO)C(=O)NCC(=O)O (H-AMALDCFRWGWRMWCSSG-OH)
